18 molecules from US9481676B2, “Azepino[4,5-B]indoles and methods of use” (Medivation Technologies, Inc., priority 2008, dated 2016) can be followed below.

Test [1] deals with T1, human recombinant dopamine D2L receptor (Homo sapiens, UniProt P14416).
T1 construct: expressed in transfected cells; host or cells: CHO cells
The experiment in a line: Dopamine D2L radioligand binding ([3H]Spiperone). The settings on record: compound at 1 μM; read-out: Dopamine (1 μM) D2L, percent inhibition of specific binding. The method, boiled down: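 Human recombinant D2L receptor from CHO cells, in Tris-HCl buffer pH 7.4 with ascorbic acid, BSA and 150 mM NaCl; compounds at 1 μM or lower (1% DMSO) incubated with 0.16 nM [3H]spiperone, 120 min, 25° C. Nonspecific binding by 10 μM haloperidol; filter counting; % inhibition of specific binding.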

Test [2] concerns the target T2, human recombinant serotonin (5-Hydroxytryptamine) 5-HT2A receptor (Homo sapiens, UniProt P28223).
T2 construct: expressed in transfected cells; host or cells: CHO-K1 cells
The experiment in a line: Serotonin 5-HT2A radioligand binding ([3H]Ketanserin). The settings on record: compound at 1 μM; read-out: Serotonin (1 μM) 5-HT2A, percent inhibition of specific binding. The method, boiled down:
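Percent inhibition of specific [3H]ketanserin (0.5 nM) binding, filtration read-out, with compounds at ≤1 μM (1% DMSO vehicle). Receptor source: recombinant human 5-HT2A in CHO-K1 cells, 50 mM Tris-HCl pH 7.4, 60 min, 25 °C; 1 μM mianserin gives nonspecific binding.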

Each structure is given as a SMILES string.

For orientation: inhibition means the drop in the measured response relative to a control, in per cent.

T2 sequence (P28223 whole entry): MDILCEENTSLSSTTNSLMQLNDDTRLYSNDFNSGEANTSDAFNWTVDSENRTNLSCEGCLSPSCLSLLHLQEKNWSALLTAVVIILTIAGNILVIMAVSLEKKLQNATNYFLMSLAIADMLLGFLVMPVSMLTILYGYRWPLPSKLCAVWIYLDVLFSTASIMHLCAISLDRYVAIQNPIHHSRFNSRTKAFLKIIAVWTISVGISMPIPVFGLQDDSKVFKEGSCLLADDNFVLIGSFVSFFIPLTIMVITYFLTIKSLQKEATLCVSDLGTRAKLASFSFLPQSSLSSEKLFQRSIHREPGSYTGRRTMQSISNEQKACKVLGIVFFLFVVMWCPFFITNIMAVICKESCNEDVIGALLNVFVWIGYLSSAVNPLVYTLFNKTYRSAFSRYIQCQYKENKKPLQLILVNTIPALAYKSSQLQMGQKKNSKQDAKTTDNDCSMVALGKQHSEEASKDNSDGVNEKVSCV
T1 sequence (P14416 whole entry): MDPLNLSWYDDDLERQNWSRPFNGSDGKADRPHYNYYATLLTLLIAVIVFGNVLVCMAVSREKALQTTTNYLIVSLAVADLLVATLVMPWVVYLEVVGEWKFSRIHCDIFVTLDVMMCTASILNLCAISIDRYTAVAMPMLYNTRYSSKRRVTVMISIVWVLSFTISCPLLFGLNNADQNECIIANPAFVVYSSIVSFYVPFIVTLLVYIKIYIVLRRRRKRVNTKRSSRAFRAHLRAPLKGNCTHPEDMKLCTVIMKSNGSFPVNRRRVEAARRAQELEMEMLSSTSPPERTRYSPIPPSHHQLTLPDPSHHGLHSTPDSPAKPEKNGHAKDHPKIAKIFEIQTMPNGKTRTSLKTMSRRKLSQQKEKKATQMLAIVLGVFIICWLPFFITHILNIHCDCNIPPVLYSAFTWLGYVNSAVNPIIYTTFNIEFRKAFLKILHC

For the molecule `CN1CCc2c(n(/C=C/c3ccccc3F)c3ccc(Cl)cc23)CC1` [Compound No. 83, (E)-9-chloro-6-(2-fluorostyryl)-3-methyl-1,2,3,4,5,6-hexahydro azepino[4,5-b]indole], the inhibition at 1 µM was 61% in test [1] and 99% in test [2].

Take `Cc1ccc2c(c1)c1c(n2CC(=O)Nc2ccccc2)CCN(C)CC1` [Compound No. 79, 2-(2,3,4,5-tetrahydro-3,9-dimethylazepino[4,5-b]indol-6(1H)-yl)-N-phenylacetamide]: the values for the inhibition at 1 µM in test [1] and in test [2] were -7% and -8%, respectively.

As to `COc1ccc(/C=C/n2c3c(c4cc(Cl)ccc42)CCN(C)CC3)cc1F` [Compound No. 158, (E)-6-(3-fluoro-4-methoxystyryl)-9-chloro-1,2,3,4,5,6-hexahydro-3-methylazepino[4,5-b]indole], the inhibition at 1 µM in test [1] came to 65%; in test [2] it was 101%.

Regarding `Cc1ccc2c(c1)c1c(n2CC(=O)N2CCNCC2)CCN(C)CC1` [Compound No. 224, 2-(3,9-dimethyl-2,3,4,5-tetrahydroazepino[4,5-b]indol-6(1H)-yl)-1-(piperazin-1-yl)ethanone], the results for the inhibition at 1 µM in test [1] and in test [2] were -2% and -7%, respectively.

Turning to `Cc1cncc(CCn2c3c(c4cc(Cl)ccc42)CCN(C)CC3)c1` [Compound No. 3, 9-chloro-3-methyl-6-(2-(5-methylpyridin-3-yl)ethyl)-1,2,3,4,5,6-hexahydroazepino[4,5-b]indole], the inhibition at 1 µM was 27% in test [1] and 95% in test [2].

Consider `COc1ccc(/C=C/n2c3c(c4cc(Cl)ccc42)CCN(C)CC3)cc1OC` [Compound No. 226, (E)-9-chloro-6-(3,4-dimethoxystyryl)-3-methyl-1,2,3,4,5,6-hexahydroazepino[4,5-b]indole], for which the figures for the inhibition at 1 µM in test [1] and in test [2] were 37% and 92%, respectively.

`CN1CCc2c(n(/C=C/c3ccccc3)c3ccc(Cl)cc23)CC1` [Compound No. 228, (E)-9-chloro-3-methyl-6-styryl-1,2,3,4,5,6-hexahydroazepino[4,5-b]indole]: the inhibition at 1 µM was 73% in test [1] and 99% in test [2].

Turning to `C/C(=C/n1c2c(c3cc(C)ccc31)CCN(C)CC2)c1ccc(Cl)cc1Cl` [Compound No. 174, (Z)-6-(2-(2,4-dichlorophenyl)prop-1-enyl)-1,2,3,4,5,6-hexahydro-3,9-dimethylazepino[4,5-b]indole], the inhibition at 1 µM was 34% in test [1] and 102% in test [2].

`Cc1ccc2c(c1)c1c(n2CC(=O)N2CCC(C)CC2)CCN(C)CC1` [Compound No. 225, 2-(3,9-dimethyl-2,3,4,5-tetrahydroazepino[4,5-b]indol-6(1H)-yl)-1-(4-methylpiperidin-1-yl)ethanone]: the inhibition at 1 µM in test [1] stood at 3%; in test [2], 38%.

On to `COc1ccc(C(O)Cn2c3c(c4cc(Cl)ccc42)CCN(C)CC3)cc1OC` (stereo not drawn) [Compound No. 77, 2-(9-chloro-2,3,4,5-tetrahydro-3-methylazepino[4,5-b]indol-6(1H)-yl)-1-(3,4-dimethoxyphenyl)ethanol], for which the inhibition at 1 µM in test [1] stood at 16%; in test [2], 90%.

Regarding `C=C(Cn1c2c(c3cc(Cl)ccc31)CCN(C)CC2)c1ccc(F)cc1` [Compound No. 82, 9-chloro-6-(2-(4-fluorophenyl)allyl)-3-methyl-1,2,3,4,5,6-hexahydroazepino[4,5-b]indole], the inhibition at 1 µM in test [1] was determined as 90%; in test [2], 98%.

As to `C/C(=C/n1c2c(c3cc(Cl)ccc31)CCN(C)CC2)c1ccc(Cl)cc1Cl` [Compound No. 152, (Z)-9-chloro-6-(2-(2,4-dichlorophenyl)prop-1-enyl)-1,2,3,4,5,6-hexahydro-3-methylazepino[4,5-b]indole], the figures for the inhibition at 1 µM in test [1] and in test [2] were 3% and 100%, respectively.

Take `COc1ccc(C(O)Cn2c3c(c4cc(C)ccc42)CCN(C)CC3)cc1OC` (stereo not drawn) [Compound No. 227, 1-(3,4-dimethoxyphenyl)-2-(3,9-dimethyl-2,3,4,5-tetrahydroazepino[4,5-b]indol-6(1H)-yl)ethanol]: the inhibition at 1 µM stood at 5% in test [1] and 85% in test [2].

For the molecule `COc1ccc(/C=C/n2c3c(c4cc(C)ccc42)CCN(C)CC3)cc1F` [Compound No. 180, (E)-6-(3-fluoro-4-methoxystyryl)-1,2,3,4,5,6-hexahydro-3,9-dimethylazepino[4,5-b]indole], the inhibition at 1 µM in test [1] came to 62%; in test [2], 101%.

In the case of `CN1CCc2c(n(CCc3ccc(C(F)(F)F)nc3)c3ccc(Cl)cc23)CC1` [Compound No. 1, 9-chloro-6-(2-(6-(trifluoromethyl)pyridin-3-yl)ethyl)-1,2,3,4,5,6-hexahydro-3-methylazepino[4,5-b]indole], the inhibition at 1 µM was 23% in test [1] and 98% in test [2].

As for `COc1ccc(/C=C/n2c3c(c4cc(Cl)ccc42)CCN(C)CC3)cc1` [Compound No. 78, 6-(4-methoxystyryl)-9-chloro-1,2,3,4,5,6-hexahydro-3-methylazepino[4,5-b]indole], the inhibition at 1 µM in test [1] worked out at 58%; in test [2], 100%.

As for `C/C(=C\n1c2c(c3cc(Cl)ccc31)CCN(C)CC2)c1ccc(F)cc1` [Compound No. 2, 9-chloro-6-((E)-2-(4-fluorophenyl)prop-1-enyl)-1,2,3,4,5,6-hexahydro-3-methylazepino[4,5-b]indole], the figures for the inhibition at 1 µM in test [1] and in test [2] were 97% and 99%, respectively.

Turning to `CC1CCN(C(=O)Cn2c3c(c4cc(Cl)ccc42)CCN(C)CC3)CC1` [Compound No. 76, 2-(9-chloro-2,3,4,5-tetrahydro-3-methylazepino[4,5-b]indol-6(1H)-yl)-1-(4-methylpiperidin-1-yl)ethanone], the inhibition at 1 µM amounted to 0% in test [1] and 52% in test [2].
